# Values quoted from earlier work as cited in patent US20030101005A1, “Crystals and structures of perosamine synthase homologs” (priority 2001, published 2003).
# Target: T1, His-tag RfbE fusion protein (GDP-4-keto-6-deoxy-D-mannose-4-aminotransferase) (Vibrio cholerae, UniProt Q06953)
# T1 construct: His-tag
# Details: substrate or cosubstrate of His-tag RfbE fusion protein
# T1 sequence (Q06953 whole entry, the tested form may be a part): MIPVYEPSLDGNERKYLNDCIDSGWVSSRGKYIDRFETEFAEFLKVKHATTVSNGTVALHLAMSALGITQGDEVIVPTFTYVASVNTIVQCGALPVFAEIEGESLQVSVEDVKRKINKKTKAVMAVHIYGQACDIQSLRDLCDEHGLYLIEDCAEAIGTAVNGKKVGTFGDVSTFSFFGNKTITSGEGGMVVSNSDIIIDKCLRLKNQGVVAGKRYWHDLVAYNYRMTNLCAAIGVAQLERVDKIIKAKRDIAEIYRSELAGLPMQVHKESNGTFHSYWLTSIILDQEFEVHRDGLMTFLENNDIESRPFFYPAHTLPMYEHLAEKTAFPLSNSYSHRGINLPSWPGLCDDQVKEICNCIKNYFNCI
SMILES,K(m) [mM],V(max) [nkat/mg protein]
CC1OC(OP(=O)(O)OP(=O)(O)OCC2OC(n3cnc4c(=O)[nH]c(N)nc43)C(O)C2O)C(O)C(O)C1=O [GDP-4-keto-6-deoxy-D-mannose],0.06,38
N[C@@H](CCC(=O)O)C(=O)O [L-glutamate],0.1,42
